Test results as given in patent US9937198B2, “Multi-functional composition and preparation method and application thereof” (Suzhou Sciscape Bio-Pharmaceutical Technology Co., Ltd., priority 2013, dated 2018).
Values joined by “and” are separate entries in the source; they are usually repeats but may differ in a detail not shown here. Identical values can stand only once.

What was measured:
normal mice [1] = assay: Acetic acid writhing (pain) in normal mice; format: in vivo; conditions: for Time of initial writhing: 13.3 mL/kg intragastric, 0.6% acetic acid i.p. 20 min later; for Pain inhibition ratio: relative to number of writhings in blank control group; for Number of writhings: within 30 min after acetic acid injection
Text: (§1) Male ICR mice, 8 weeks old and 20±2 g in body weight, were purchased from Beijing HFK Bioscience Co., Ltd.
(§2) The solutions of Compositions 1 to 7 prepared in this example were used.
After mice were normally fed for 3 days, they were randomly divided into 11 groups depending on body weight, i.e., a blank control group, administration groups 1 to 7 and negative control groups 1 to 3, by body weight. The mice in administration groups 1 to 7 were intragastrically given the solutions of Compositions 1 to 7 respectively at a dose of 13.3 mL/kg body weight while the mice in the blank control group were intragastrically given sterile water for medical use at a dose of 13.3 mL/kg body weight. The mice in negative control groups 1 to 3 were intragastrically given the solution of trehalose (0.15 g/mL), the solution of validamycin (0.3 mg/mL) and the solution of algal polysaccharides (0.15 g/mL) at a dose of 13.3 mL/kg body weight respectively. Twenty minutes after the administration, the mice were intraperitoneally administered with 0.2 ml of solution of acetic acid (0.6%). Then, the number of writhing and time when initial writhing occurred in mice were observed within 30 min after injection of acetic acid solution and the pain inhibition ratio (pain inhibition ratio=(number of writhings in the blank control group—number of writhings in the administration group)/number of writhings in the blank control group) was calculated.

healthy volunteers = assay: Effect on blood glucose level in normal people; format: in vivo, human; conditions: for effect on blood glucose level in normal people / Blood glucose level after administration: 200 mL oral; for Blood glucose level after administration / Blood glucose level before administration: individual healthy volunteers; for Blood glucose level before administration: fasting baseline
Protocol: Six healthy volunteers were fasted overnight and then were measured for fasting blood glucose. Thereafter, they were orally administered with 200 mL of the solution of Composition 1, or 200 mL of the solution of trehalose (0.15 g/mL), or 200 mL of the solution of validamycin (0.3 mg/mL), or 200 mL of distilled water, as stated in Table 3.2. The blood glucose level in every volunteer was tested before administration and 30 min, 60 min and 120 min post administration.

normal mice [2] = assay: Enterocinesia in normal mice (carbon powder movement in small intestine); format: in vivo; conditions: 13.3 mL/kg intragastric; for Movement distance of carbon powder: carbon powder 20 to 30 min later, killed 15 to 20 min after; for Movement distance of carbon powder/full length of small intestine: normal mice
Protocol: as §1
Solutions of Compositions 1 to 7 were used in the experiment.
A suspension of carbon powder of 0.1 g/mL was also used. In particular, 1 g of carbon powder was added to and then suspended evenly in 10 mL of normal saline.
After the mice were fed normally for 3 days, they were given no food but water for 18-24 h. By the body weight, the mice were randomly divided into 11 groups, i.e., a blank control group, administration groups 1 to 7 and negative control groups 1 to 3. The mice in administration groups 1 to 7 were respectively intragastrically administered with the solutions of Compositions 1 to 7 at a dose of 13.3 mL/kg body weight while the mice in the blank control group were intragastrically given sterile water for medical use at a dose of 13.3 mL/kg body weight. The mice in negative control groups 1 to 3 were respectively intragastrically administered with the solution of trehalose (0.15 g/mL), the solution of validamycin (0.3 mg/mL) and the solution of algal polysaccharide (0.15 g/ml) at a dose of 13.3 mL/kg body weight. At 20 to 30 min post administration, all mice were intragastrically given the suspension of carbon powder at a dose of 0.2 mL/10 g body weight. At 15 to 20 min post the administration of the carbon powder suspension, the mice were killed by cervical vertebrae dislocation and then were quickly dissected to separate the small intestines. The movement distance of the carbon powder (the distance measured from the carbon powder at the forefront to the end of the duodenum closer to heart) and the full length of the small intestine were measured.

normal mice [3] = assay: Sleep in normal mice with subdissociative sodium pentobarbital; format: in vivo; conditions: 13.3 mL/kg intragastric; sodium pentobarbital 15 mg/kg i.p. 20 to 30 min later
Protocol: as §1, §2
After the mice were fed normally for 3 days, they were given no food but water for 18 to 24 h. By body weight, the mice were randomly divided into 11 groups, i.e., a blank control group, administration groups 1 to 7 and negative control groups 1 to 3. The mice in administration groups 1 to 7 were intragastrically administered with the solutions of Compositions 1 to 7 at a dose of 13.3 mL/kg body weight while the mice in the blank control group were intragastrically given sterile water for medical use at a dose of 13.3 mL/kg body weight. The mice in negative control groups 1 to 3 were intragastrically given the solution of trehalose (0.15 g/mL), the solution of validamycin (0.3 mg/mL) and the solution of algal polysaccharides (0.15 g/mL) at a dose of 13.3 mL/kg body weight respectively. Twenty to 30 min post administration, all mice were intraperitoneally injected with sodium pentobarbital at a subdissociative dose (15 mg/kg). The time when the righting reflex disappeared and sleep duration of the mice were recorded.

diabetic mice = assay: Reduction of blood glucose in streptozotocin diabetic mice; format: in vivo; conditions: for Blood glucose level at different time points after administration: 13.3 mL/kg intragastric at 9 am and 9 pm every day; for Blood glucose level before administration: baseline, STZ diabetic mice
Protocol: Male ICR mice, 8 weeks old, 20±2 g in body weight, were purchased from Beijing HFK Bioscience Co., Ltd.
Also, the solutions of Compositions 1-7 were used in this Example.
I. Modeling: Before experiment started, a 0.1 mol/L sodium citrate buffer (pH4.5) was prepared. It was sterilized in an autoclave and then stored in a refrigerator at 4° C. Before the modeling began, this sodium citrate buffer was used to freshly prepare a 10 mg/mL solution of streptozotocin (STZ) in an ice bath. The mice were fed normally for 3 days, and then they were intraperitoneally administered with the freshly prepared STZ solution at a dose of 45 mg/kg for 5 consecutive days once a day.
II. Treatment: After the model was successfully established, the mice had not been administered with streptozotocin solution were arranged in a group, i.e., the normal group, and normally fed. The diabetic mice were randomly divided into 11 groups depending on blood glucose level, the groups being a model group, administration groups 1 to 7 and negative control groups 1 to 3. The mice in administration groups 1 to 7 were respectively intragastrically given the solution of Composition 1 to 7 prepared in this Example at a dose of 13.3 mL/kg body weight. The mice in the model group were intragastrically given sterile water for medical use at a dose of 13.3 mL/kg body weight. The mice in negative control groups 1 to 3 were respectively intragastrically administered with the solution of trehalose (0.15 g/mL), the solution of validamycin (0.3 mg/mL) and the solution of algal polysaccharides (0.15 g/mL) at a dose of 13.3 mL/kg body weight. The administration was conducted at 9 am and 9 pm every day, and blood glucose level was checked by Roche blood glucose meter once every other week for 5 weeks.

| SMILES | Time of initial writhing (normal mice [1]) [min] | Pain inhibition ratio (normal mice [1]) [%] | Number of writhings (normal mice [1]) | effect on blood glucose level in normal people (healthy volunteers) | Movement distance of carbon powder (normal mice [2]) [cm] | Movement distance of carbon powder/full length of small intestine (normal mice [2]) [%] | Sleep duration (normal mice [3]) [min] | Time when righting reflex disappeared (normal mice [3]) [min] | Blood glucose level at different time points after administration (diabetic mice; 1 week) [mmol/L] | Blood glucose level at different time points after administration (diabetic mice; 2 weeks) [mmol/L] | Blood glucose level at different time points after administration (diabetic mice; 3 weeks) [mmol/L] | Blood glucose level at different time points after administration (diabetic mice; 4 weeks) [mmol/L] | Blood glucose level at different time points after administration (diabetic mice; 5 weeks) [mmol/L] | Blood glucose level before administration (diabetic mice) [mmol/L] | also measured |
| --- | --- | --- | --- | --- | --- | --- | --- | --- | --- | --- | --- | --- | --- | --- | --- |
| OC[C@H]1O[C@H](O[C@H]2O[C@H](CO)[C@@H](O)[C@H](O)[C@H]2O)[C@H](O)[C@@H](O)[C@@H]1O [trehalose] | 3.4 ± 1.1 | 0.0 | 51.3 ± 1.6 | significantly raised blood glucose level | 33.6 ± 3.40 | 71.9 ± 8.20 | 30.54 ± 2.17 | 2.49 ± 0.14 | 22.15 ± 2.14 | 24.50 ± 2.35 | 25.33 ± 2.15 | 26.47 ± 2.12 | 27.16 ± 1.01 | 18.40 ± 2.07 | Blood glucose level after administration (healthy volunteers; 30 min): 9.3 mmol/L; Blood glucose level after administration (healthy volunteers; 60 min): 8.4 mmol/L; Blood glucose level after administration (healthy volunteers; 120 min): 7.1 mmol/L; Blood glucose level before administration (healthy volunteers): 7.0 mmol/L |
| OCC1=C[C@H](N[C@H]2C[C@H](CO)[C@@H](O[C@@H]3O[C@H](CO)[C@@H](O)[C@H](O)[C@H]3O)[C@H](O)[C@H]2O)[C@H](O)[C@@H](O)[C@@H]1O [validamycin] | 3.6 ± 1.6 | 0.0 | 51.9 ± 2.1 | had not effect on the blood glucose level | 29.3 ± 2.34 | 66.3 ± 6.57 | 29.87 ± 1.58 | 3.11 ± 0.21 | 20.20 ± 2.11 | 22.51 ± 2.28 | 23.57 ± 2.06 | 23.57 ± 1.07 | 24.01 ± 1.25 | 18.27 ± 2.13 | Blood glucose level after administration (healthy volunteers; 30 min, listed as Solution of validamycin): 6.3 mmol/L and 6.7 mmol/L; Blood glucose level after administration (healthy volunteers; 60 min, listed as Solution of validamycin): 6.2 mmol/L and 6.6 mmol/L; Blood glucose level after administration (healthy volunteers; 120 min, listed as Solution of validamycin): 5.9 mmol/L and 5.3 mmol/L; Blood glucose level before administration (healthy volunteers; listed as Solution of validamycin): 6.0 mmol/L and 5.3 mmol/L |
